Results as given in patent US20240400554A1, “MONOACYLGLYCEROL LIPASE (MAGL) INHIBITORS FOR THE TREATMENT OF PAIN AND RELATED MEDICAL DISORDERS” (Humanwell Pharmaceutical US, Inc., priority 2023, published 2024).

Legend:
[1] = molecular target: T1, human recombinant MAGL (monoacylglycerol lipase) (Homo sapiens, UniProt Q99685); experiment: In vitro MAGL enzyme inhibition assay (Cayman Monoacylglycerol Lipase Inhibitor Screening Assay, 4-nitrophenylacetate hydrolysis); format: biochemical; conditions: 4-nitrophenylacetate substrate, 15 min preincubation, absorbance 405-415 nm
T1 construct: purchased Cayman Chemical Item No. 705192
T1 sequence (Q99685 1-303): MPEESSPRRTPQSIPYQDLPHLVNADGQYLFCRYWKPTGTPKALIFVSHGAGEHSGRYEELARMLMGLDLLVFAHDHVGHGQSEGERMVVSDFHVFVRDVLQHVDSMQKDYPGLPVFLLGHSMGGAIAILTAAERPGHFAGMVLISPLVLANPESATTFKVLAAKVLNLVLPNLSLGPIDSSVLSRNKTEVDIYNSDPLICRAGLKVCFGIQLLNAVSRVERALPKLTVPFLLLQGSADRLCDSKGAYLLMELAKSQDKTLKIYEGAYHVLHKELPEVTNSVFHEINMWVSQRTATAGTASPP
Description: Monoacylglycerol Lipase Inhibitor Screening Assay provides a convenient method for screening human MAGL inhibitors.
Dilute 3 ml of MAGL Assay Buffer (10×) concentrate with 27 ml of ultrapure water. This final 1× Assay Buffer (10 mM Tris-HCl, pH 7.2, containing 1 mM EDTA) should be used in the assay and for the dilution of MAGL enzyme, substrate, and MAGL inhibitor. The 1× Assay Buffer is stable for at least six months if stored at −20° C.
The vial contains 0.5 ml of 17 mM ethanolic solution of 4-nitrophenylacetate. Mix 150 μL of this solution with 450 μl of 1× Assay Buffer prior to testing. This is enough substrate to assay 50 wells. Dilute additional substrate if using the entire plate.
This vial contains 100 μl of a solution of human recombinant MAGL (monoacylglycerol lipase). The thawed enzyme should be stored on ice. Dilute 30 μl of enzyme with 570 μl of 1×MAGL Assay Buffer. This is enough enzyme to assay 50 wells. Dilute additional enzyme if using the entire plate. The diluted enzyme is stable for four hours on ice.
This vial contains 20 nmol of inhibitor. Resuspend in 125 μl of DMSO, then add 125 μl of 1× Assay Buffer and vortex to make an 80 μM stock.
1). 100% Initial Activity Wells—add 150 μl of 1× Assay Buffer, 10 μl of MAGL enzyme, and 10 μl of solvent (same solvent used to dissolve the inhibitor) to three wells.
2). Background Wells—add 160 μl of 1× Assay Buffer and 10 μl of solvent (same solvent used to dissolve the inhibitor) to three wells.
3). Inhibitor/Positive Control Wells—add 150 μl of 1× Assay Buffer, 10 μl of MAGL enzyme, and 10 μl of inhibitor* or positive control inhibitor to the inhibitor wells.
4). Mix the contents of the wells by pipetting gently up and down and incubate for 15 minutes at room temperature. The incubation time for different inhibitors may vary and will need to be optimized by the user.
5). Initiate the reactions by adding 10 μl of MAGL Substrate to all the wells being used. Carefully shake the 96-well plate for 10 seconds to mix and cover with the plate cover. Incubate for ten minutes at room temperature.
6). […] (Tecan Spark 10M Multimode Plate Reader)
1). Determine the average absorbance of each sample.
2). Subtract the average absorbance of the background wells from the average absorbance of the 100% initial activity and the inhibitor wells.
3). Determine the percent inhibition or percent activity for each inhibitor using one of the following equations: […]

[2] = tested on: 2% formalin model in SD rats; experiment: Formalin-induced pain model; format: in vivo; conditions: 3 mg/kg p.o.
Description: A diluted formalin solution is injected subcutaneously into the hind paw of rats using a microsyringe, creating a continuous noxious stimulus that induces spontaneous pain behaviors in the animals. The experiment can record the number of lifts and licks of the rat's foot through an autonomous movement analyzer to assess the degree of pain. This experiment uses a 2% formalin model in SD rats and tests the analgesic activity of compounds by oral administration. After injecting 2% formalin, the number of movements (lifts and licks of the injected foot) from 0-60 min after injecting the formalin solution is recorded and analyzed.
The Maximum Possible Effect (MPE %) is calculated as a percentage:
Note: (1) MPE % for each group is calculated with sham group MPE=100% and vehicle group MPE=0% as standards. (2) Movement counts of the sham group are subtracted to exclude the impact of background noise on the experiment. (2) “Sham” represents the average value of the sham group; “Vehicle-Sham” represents the average value of the vehicle group minus the sham group.
Results are presented as mean values with standard error. Data from each group are analyzed and graphed using GraphPad Prism 8 software. Statistical analysis is conducted using one-way ANOVA to determine statistical differences between groups, with t-tests used for comparisons between two groups. A p-value <0.05 is considered statistically significant.

O=C(OC(C(F)(F)F)C(F)(F)F)N1CCC(c2cc3n(n2)-c2ccc(F)cc2CC3)CC1 [Compound 1, 1,1,1,3,3,3-hexafluoropropan-2-yl 4-(7-fluoro-4,5-dihydropyrazolo[1,5-a]quinolin-2-yl)piperidine-1-carboxylate]
IC50 [1]: < 0.1 nM
Experimental Results (analgesic activity in the formalin model) [2]: effective
inhibition in vivo at 3 mg/kg ([2]; Rattus norvegicus, po, 1 h, movements (lifts and licks) 0-60 min after formalin, read-out: MPE % (Maximum Possible Effect)): 68%
